“Also recorded” adds a separate entry of the source.
Legend:
Assay type in all cases: cell-based
[1] = tested on: L. casei, L. paracasei and L. rhamnosus cells; assay: metabolic activity by resazurin fluorescence assay after simulated gastric fluid; conditions: infused L. casei cells, SGF
Experimental: For this assay, 6 log CFUs/ml of cells (with and without infused phenolic actives) in selective culture media was prepared. 1 mL of each of the samples were added to a flat bottom 24 well culture plates and 50 μM of resazurin was added to each well plates. Plates were sealed with PCR sealing films inside anerobic cabinet to maintain in-situ anaerobic conditions and were immediately incubated at 37° C. for 16 h. Fluorescence data was collected each 5 min at 580 nm (λex=530 nm). The reduction of resazurin was evaluated by the assay. After cells were treated with simulated gastric fluid, 1 mL of each samples was centrifugated (16,000×g for 2 min) and resuspended in 1 mL of MRS broth containing 50 μM of resazurin. Then, plate was incubated at 37° C. for 16 h and read each 5 min (530 nm/580 nm). […] The reduction of resazurin to resorufin (fluorescent form) was measured to correlate with the metabolic activity of three types of probiotic cells with different infused polyphenols and conditions, as shown in FIG. 7 through FIG. 20. The production of resorufin increases the intensity of fluorescence, while the reduction of the peak is related with the production of hydroresorufin.

[2] = tested on: L. paracasei (LP), Lactobacillus casei (LC) and L. rhamnosus (LR) probiotic cells; assay: survivability during simulated gastrointestinal treatments (SGF 2 h, then SIF 2 h); conditions: for Stability of probiotics against gastric pH and bile salt tolerance: infusion in cells
Experimental: To illustrate the role of phenolic bioactives in influencing cell viability, changes in the intracellular pH and interactions of bile salts with cells were measured after simulated gastric and intestinal treatments respectively. Survivability of cells with and without infused plant extracts were evaluated during simulated gastrointestinal treatments under anaerobic conditions. Simulated gastric fluids (SGF, pH=3) were prepared by adding 0.5% w/v sodium chloride, hydrochloric acid to maintain pH and 3.2 mg/ml pepsin. 1 g of selected bacterial cells with and without infused plant extracts were separately incubated in SGF for 2 h at 37° C. and 100 rpm. After gastric treatment, the cells were pelleted down by centrifuging at 5000 rpm for 2 min and then resuspended in the simulated intestinal fluids (SIF) containing 3.33 mg/mL calcium chloride, 5 g/L sodium chloride, 10 mM bile salts and pancreatin (100 U/ml) in 0.025 M potassium phosphate buffer (pH=7). Digestion mixtures were incubated at 37° C. and 100 rpm for 2 h. After the simulated gastric and intestinal digestions, both the phenolic infused cells and control cells were isolated by centrifuging at 5000 rpm for 2 min and will be washed three times with autoclaved 1×PBS. Viable cells were enumerated after serial dilutions on selective media plates. The viability of cells were measured in triplicates and the results of these measurements were averaged. Live probiotic cells must reach the colon alive for colonization and related health benefits. These figures plot survivability of L. paracasei (LP), Lactobacillus casei (LC) and L. rhamnosus (LR) probiotic cells with and without infused plant extracts during simulated gastrointestinal treatments with simulated gastric fluid (SGF) for 2 h, followed by the treatment with simulated intestinal fluid (SIF) for next 2 h.

[3] = tested on: L. casei cells; assay: survivability of model probiotic L. casei cells loaded with other polyphenols or mixed with catechin during simulated digestion (FIG. 6); conditions: for survivability of probiotic bacteria during simulated gastro-intestinal digestion: L. casei cells infused
Experimental: To illustrate the role of phenolic bioactives in influencing cell viability, changes in the intracellular pH and interactions of bile salts with cells were measured after simulated gastric and intestinal treatments respectively. Survivability of cells with and without infused plant extracts were evaluated during simulated gastrointestinal treatments under anaerobic conditions. Simulated gastric fluids (SGF, pH=3) were prepared by adding 0.5% w/v sodium chloride, hydrochloric acid to maintain pH and 3.2 mg/ml pepsin. 1 g of selected bacterial cells with and without infused plant extracts were separately incubated in SGF for 2 h at 37° C. and 100 rpm.
After gastric treatment, the cells were pelleted down by centrifuging at 5000 rpm for 2 min and then resuspended in the simulated intestinal fluids (SIF) containing 3.33 mg/mL calcium chloride, 5 g/L sodium chloride, 10 mM bile salts and pancreatin (100 U/ml) in 0.025 M potassium phosphate buffer (pH=7). Digestion mixtures were incubated at 37° C. and 100 rpm for 2 h. After the simulated gastric and intestinal digestions, both the phenolic infused cells and control cells were isolated by centrifuging at 5000 rpm for 2 min and will be washed three times with autoclaved 1×PBS. Viable cells were enumerated after serial dilutions on selective media plates. The viability of cells were measured in triplicates and the results of these measurements were averaged.
Survivability of probiotic cells was not improved if polyphenols were not infused in cells but only added in the same amount to the gastric fluid.

Row | Molecule | metabolic activity after simulated gastric treatment [1] | Stability of probiotics against gastric pH and bile salt tolerance [2] | survivability of probiotic bacteria during simulated gastro-intestinal digestion [3] | survivability / stability during simulated gastro-intestinal digestion ([2]; infused cells, SGF then SIF) | survivability of probiotic bacteria during simulated digestion ([3]; simply mixed with cells or added to gastric fluid, not infused)
1 | COc1cc(/C=C/C(=O)CC(=O)/C=C/c2ccc(O)c(OC)c2)ccc1O [curcumin] | further suppressed | enhanced | Enhanced stability; also recorded: significantly enhance survivability |  | 
2 | O=c1c(O)c(-c2ccc(O)c(O)c2)oc2cc(O)ccc12 [fisetin] |  | enhanced | Enhanced stability; also recorded: significantly enhance survivability |  | 
3 | catechin |  | enhanced |  | stable; also recorded: maintained their population | no significant improvement in survivability

— patent US20240150705A1, “POLYPHENOL INFUSED PROBIOTICS AND METHODS FOR IMPROVED GUT SURVIVABILITY, PERSISTENCE AND COLONIZATION” (THE REGENTS OF THE UNIVERSITY OF CALIFORNIA, priority 2021, published 2024)
